In patent US20210177982A1, “MUCUS-PENETRATING PEPTIDES, DELIVERY VEHICLES AND METHODS OF THERAPY” (DNALite Therapeutics, Inc., priority 2018, published 2021):
Ends that are not written are not given here.

Columns and labels:
[1] = pH 7 (No salt); cited from earlier work
[2] = 25° C., RP-HPLC, Ac-X-G-A-K-G-A-G-V-G L-amide; cited from earlier work
[3] = system: mucin from porcine stomach; assay: Peptide mucin interaction assay (dynamic light scattering); format: binding; details: peptide conjugated to DSPE-PEG2k-DBCO at 0.08% mol on MVL5/DOPC/Chol base system with DNA; 0.5 mg/mL mucin, sample:mucin 5:2
Method: DSPE-PEG2k-DBCO (Avanti Polar Lipids) was hydrated in water and agitated to form a transparent solution. Synthesized peptides with a lysine containing an azide on the N-terminus were conjugated to it. 2.5× moles of the azide peptides were added to the lipid mix and were left to react overnight. 10× moles of sodium azide were added to the reaction to quench it.
Thin film hydration was used to make a lipid base system composed of MVL5/DOPC/Chol (30/60/10% mol). Briefly, the lipids were dissolved in chloroform: methanol (9:1) and mixed. The lipids were then dried using a rotovap and hydrated in a HEPES-glucose buffer (10 mM HEPES, 230 mM Glucose, pH 7.4) for a final concentration of 1 mM. The lipid suspension was extruded through a 200 nm pore size filter for 20 passes using the NanoSizer MINI (T&T Scientific Corporation, Tennessee). An appropriate amount of DNA was added to the lipid base system for a charge ratio of +3 (assuming MVL5 has a charge ratio of +3 at neutral pH) and the solution was mixed thoroughly and let rest for 20 min. DSPE-PEG2k-DBCO conjugated peptides were added to the base system for a final lipid concentration of 0.08% mol. DSPE-SS-PEG2k was added to the base system for a final lipid concentration of 5% mol. The solutions were incubated for 1 h at 60° C.
For each sample, purified 0.5 mg/mL mucin from porcine stomach (Sigma Aldrich) was added to the sample at a sample:mucin volume ratio of 5:2. Dynamic light scattering was used to measure changes in light scattering in the presence of and without mucin for each sample. […] Thus SEQ ID NO. […] Thus SEQ ID NO. […] Thus SEQ ID NO. […] 4 conjugated systems, where peak shifting was not observed in the presence of mucin. Thus SEQ ID NO. […] 5 conjugated systems where peak shifting was not observed in the presence of mucin. Thus SEQ ID NO. […] 6 conjugated systems where peak shifting was not observed in the presence of mucin. Thus SEQ ID NO. […] FIG. 11 show SEQ ID NO. 7 conjugated systems where peak shifting was not observed in the presence of mucin. Thus SEQ ID NO. […] Thus SEQ ID NO. […] Thus SEQ ID NO. […] Thus, SEQ ID NO. […] Thus SEQ ID NO. […] FIG. 16 show SEQ ID NO. […] Thus SEQ ID NO.

C[C@H](N)C(=O)O [Ala]
Fauchere Score [1]: 0.3 | ΔtR(Gly), pH 2, 20 mM H3PO4 [2]: 3.6 | ΔtR(Gly), pH 2, 20 mM TFA [2]: 2.8 | ΔtR(Gly), pH 5, 10 mM PO4 Buffer [2]: 3.3 | ΔtR(Gly), pH 7, 10 mM PO4 Buffer +50 mM NaCl [2]: 4.1 | ΔtR(Gly), pH 7, 10 mM PO4 Buffer +50 mM NaClO4 [2]: 3.4 | ΔtR(Gly), pH 7, 10 mM PO4 Buffer, No Salt [2]: 3.9

N=C(N)NCCC[C@H](N)C(=O)O [Arg]
Fauchere Score [1]: −1.010 | ΔtR(Gly), pH 2, 20 mM H3PO4 [2]: −5.0 | ΔtR(Gly), pH 2, 20 mM TFA [2]: 0.6 | ΔtR(Gly), pH 5, 10 mM PO4 Buffer [2]: −3.7 | ΔtR(Gly), pH 7, 10 mM PO4 Buffer +50 mM NaCl [2]: 4.1 | ΔtR(Gly), pH 7, 10 mM PO4 Buffer +50 mM NaClO4 [2]: 6.4 | ΔtR(Gly), pH 7, 10 mM PO4 Buffer, No Salt [2]: 3.9

NC(=O)C[C@H](N)C(=O)O [Asn]
Fauchere Score [1]: −0.600 | ΔtR(Gly), pH 2, 20 mM H3PO4 [2]: 0.0 | ΔtR(Gly), pH 2, 20 mM TFA [2]: −0.6 | ΔtR(Gly), pH 5, 10 mM PO4 Buffer [2]: 0.0 | ΔtR(Gly), pH 7, 10 mM PO4 Buffer +50 mM NaCl [2]: 1.0 | ΔtR(Gly), pH 7, 10 mM PO4 Buffer +50 mM NaClO4 [2]: 30.8 | ΔtR(Gly), pH 7, 10 mM PO4 Buffer, No Salt [2]: 0.5

N[C@@H](CC(=O)O)C(=O)O [Asp]
Fauchere Score [1]: −0.770 | ΔtR(Gly), pH 2, 20 mM H3PO4 [2]: 2.2 | ΔtR(Gly), pH 2, 20 mM TFA [2]: 1.6 | ΔtR(Gly), pH 5, 10 mM PO4 Buffer [2]: −1.0 | ΔtR(Gly), pH 7, 10 mM PO4 Buffer +50 mM NaCl [2]: −0.8 | ΔtR(Gly), pH 7, 10 mM PO4 Buffer +50 mM NaClO4 [2]: −7.6 | ΔtR(Gly), pH 7, 10 mM PO4 Buffer, No Salt [2]: −0.9

N[C@@H](CS)C(=O)O [Cys]
ΔtR(Gly), pH 2, 20 mM H3PO4 [2]: 8.1 | ΔtR(Gly), pH 2, 20 mM TFA [2]: 7.6 | ΔtR(Gly), pH 5, 10 mM PO4 Buffer [2]: 7.9 | ΔtR(Gly), pH 7, 10 mM PO4 Buffer +50 mM NaCl [2]: 9.1 | ΔtR(Gly), pH 7, 10 mM PO4 Buffer +50 mM NaClO4 [2]: 8.2 | ΔtR(Gly), pH 7, 10 mM PO4 Buffer, No Salt [2]: 8.3

NC(=O)CC[C@H](N)C(=O)O [Gln]
Fauchere Score [1]: −0.220 | ΔtR(Gly), pH 2, 20 mM H3PO4 [2]: 0.5 | ΔtR(Gly), pH 2, 20 mM TFA [2]: 0.6 | ΔtR(Gly), pH 5, 10 mM PO4 Buffer [2]: 0.6 | ΔtR(Gly), pH 7, 10 mM PO4 Buffer +50 mM NaCl [2]: 1.6 | ΔtR(Gly), pH 7, 10 mM PO4 Buffer +50 mM NaClO4 [2]: 0.0 | ΔtR(Gly), pH 7, 10 mM PO4 Buffer, No Salt [2]: 0.5

N[C@@H](CCC(=O)O)C(=O)O [Glu]
Fauchere Score [1]: −0.640 | ΔtR(Gly), pH 2, 20 mM H3PO4 [2]: 3.6 | ΔtR(Gly), pH 2, 20 mM TFA [2]: 2.8 | ΔtR(Gly), pH 5, 10 mM PO4 Buffer [2]: −0.5 | ΔtR(Gly), pH 7, 10 mM PO4 Buffer +50 mM NaCl [2]: −0.4 | ΔtR(Gly), pH 7, 10 mM PO4 Buffer +50 mM NaClO4 [2]: −7.1 | ΔtR(Gly), pH 7, 10 mM PO4 Buffer, No Salt [2]: −0.9

N[C@@H](CO)C(=O)O [Ser]
ΔtR(Gly), pH 2, 20 mM H3PO4 [2]: 0.0 | ΔtR(Gly), pH 2, 20 mM TFA [2]: 0.0 | ΔtR(Gly), pH 5, 10 mM PO4 Buffer [2]: 0.0 | ΔtR(Gly), pH 7, 10 mM PO4 Buffer +50 mM NaCl [2]: 1.2 | ΔtR(Gly), pH 7, 10 mM PO4 Buffer +50 mM NaClO4 [2]: 30.5 | ΔtR(Gly), pH 7, 10 mM PO4 Buffer, No Salt [2]: 0.5

CCCC[C@H](N)C(=O)O [n-Leu, norleucine]
ΔtR(Gly), pH 2, 20 mM H3PO4 [2]: 24.6 | ΔtR(Gly), pH 2, 20 mM TFA [2]: 24.6 | ΔtR(Gly), pH 5, 10 mM PO4 Buffer [2]: 25.6 | ΔtR(Gly), pH 7, 10 mM PO4 Buffer +50 mM NaCl [2]: 25.9 | ΔtR(Gly), pH 7, 10 mM PO4 Buffer +50 mM NaClO4 [2]: 26.6 | ΔtR(Gly), pH 7, 10 mM PO4 Buffer, No Salt [2]: 25.6

CCC[C@H](N)C(=O)O [n-Val, norvaline]
ΔtR(Gly), pH 2, 20 mM H3PO4 [2]: 15.4 | ΔtR(Gly), pH 2, 20 mM TFA [2]: 15.2 | ΔtR(Gly), pH 5, 10 mM PO4 Buffer [2]: 15.9 | ΔtR(Gly), pH 7, 10 mM PO4 Buffer +50 mM NaCl [2]: 16.9 | ΔtR(Gly), pH 7, 10 mM PO4 Buffer +50 mM NaClO4 [2]: 16.8 | ΔtR(Gly), pH 7, 10 mM PO4 Buffer, No Salt [2]: 16.3

ADDLENVNEGMRIH [SEQ ID NO. 21]
interaction with mucin (shift in DLS light intensity peak) [3]: found to not be mucin interacting

DATDRFHGPDAL [SEQ ID NO. 26]
interaction with mucin (shift in DLS light intensity peak) [3]: found to be mucin interacting

DPVDTPNPTRRKPGK [SEQ ID NO. 24]
interaction with mucin (shift in DLS light intensity peak) [3]: found to be mucin interacting

EPDNWSLDFPRR [SEQ ID NO. 8]
interaction with mucin (shift in DLS light intensity peak) [3]: found to interact with mucin

HPGSPFPPEHRP [SEQ ID NO. 12]
interaction with mucin (shift in DLS light intensity peak) [3]: found to be interacting with mucin

KTIEAHPPYYAS [SEQ ID NO. 7]
interaction with mucin (shift in DLS light intensity peak) [3]: found not to interact with mucin

LIIYRDLISH [SEQ ID NO. 36, reference compound]
interaction with mucin (shift in DLS light intensity peak) [3]: disappearance of the system peak was observed demonstrating mucin interaction

LSTAADMQGVVTDGMASGLDKDYLKPDD [SEQ ID NO. 22]
interaction with mucin (shift in DLS light intensity peak) [3]: found to not interact with mucin

MAKPAQGAKY [SEQ ID NO. 2]
interaction with mucin (shift in DLS light intensity peak) [3]: found to interact with mucin

MATKGGTVKA [SEQ ID NO. 1]
interaction with mucin (shift in DLS light intensity peak) [3]: found not to interact with mucin

MSVTGGKMAP [SEQ ID NO. 3]
interaction with mucin (shift in DLS light intensity peak) [3]: found to be interacting with mucin

NIENSTLATPLS [SEQ ID NO. 32]
interaction with mucin (shift in DLS light intensity peak) [3]: found to be mucin interacting

NSGTMQSASRAT [SEQ ID NO. 5]
interaction with mucin (shift in DLS light intensity peak) [3]: found not to interact with mucin

NYTTYKSHFQDR [SEQ ID NO. 9]
interaction with mucin (shift in DLS light intensity peak) [3]: found to interact with mucin

PSSSSSSRIGDP [SEQ ID NO. 23]
interaction with mucin (shift in DLS light intensity peak) [3]: found to be mucin interacting

QAASRVENYMHR [SEQ ID NO. 6]
interaction with mucin (shift in DLS light intensity peak) [3]: found not to interact with mucin

RQSAGVL [SEQ ID NO. 14]
interaction with mucin (shift in DLS light intensity peak) [3]: lack of interaction with mucin

RQSAGVLGFAPTNIDDTSFHA [SEQ ID NO. 16]
interaction with mucin (shift in DLS light intensity peak) [3]: found to be mucin interacting

RQWVGDRA [SEQ ID NO. 17]
interaction with mucin (shift in DLS light intensity peak) [3]: found to be mucin interacting

RWQVGDRADGE [SEQ ID NO. 19]
interaction with mucin (shift in DLS light intensity peak) [3]: found to be mucin interacting

STSTVSTPVPPPVDDTTWLQSAS [SEQ ID NO. 15]
interaction with mucin (shift in DLS light intensity peak) [3]: found to be mucus interacting

TPKTMTQTYDFS [SEQ ID NO. 4]
interaction with mucin (shift in DLS light intensity peak) [3]: found not to interact with mucin

TSHTDAPPARSP [SEQ ID NO. 13]
interaction with mucin (shift in DLS light intensity peak) [3]: found to be interacting with mucin

TSHTDAPPARSP [SEQ ID NO. 34]
interaction with mucin (shift in DLS light intensity peak) [3]: found to be mucin interacting

VGDDSGGFSTTVSTEQNVPDPQV [SEQ ID NO. 20]
interaction with mucin (shift in DLS light intensity peak) [3]: not found to be mucin interacting

YPYDANHTRSPT (not fully specified (N-terminus)) [SEQ ID NO. 10]
interaction with mucin (shift in DLS light intensity peak) [3]: found to be interacting with mucin
